Experiments:
non-sterile soil = assay: Ground burial exposure of treated newsprint and cardboard; conditions: newsprint soaked 5 min in 5000 ppm copper solution; buried in moist non-sterile garden soil 90 days, 18 to 24° C
Text: Cellulosic materials, including newsprint and cardboard samples, treated with copper amidoxime or hydroxamic acid complexes are preserved after being buried in non-sterile soil for 90 days. (Procedure adapted from: Hussey, S. W., More Brownie Girl Scout Try-Its, Girl Scouts of the U.S.A., 81 (1989).) In the same soil, untreated newsprint and cardboard samples were consumed microbially resulting in disintegration of the materials. Given that the composition of mechanically pulped newsprint closely resembles that of coniferous trees (Table 1, U.S. Pat. No. 5,582,682), this method serves as a rapid test for screening for preservatives of wood.
The imbibement solution was prepared by diluting the preparations given in Example 1 with water to a copper concentration of 5000 ppm. Samples of newsprint were soaked in solutions of the copper complexes for 5 min. The paper was removed from the imbibing solution, blotted nearly dry, air-dried overnight, and then placed in sacks made from nylon stockings. The sacks were labeled and closed with nylon twist-ties. Control samples of untreated newsprint were placed in similar nylon sacks. The sacks of treated and untreated newsprint were buried in clay pots containing moist, non-sterile garden soil for 90 days and maintained at approximately 18 to 24° C. After 90 days the sacks were unburied, opened, and the contents examined for decomposition. […]

white, hairy fungus = assay: Soil burial of pressure-imbibed SYP wooden stakes in flower pots, visual examination; conditions: SYP stakes imbibed at 5000 ppm copper, 155 psi; about 3/4 buried in moist non-sterile soil, greenhouse at 78° C, after 5 months
Experimental: Two pre-weighed SYP wooden stakes (¾″×¾″×12″ or ¾″×1½″×12″) were loaded into a hastaloy pressure vessel and covered with imbibement solution at room temperature. The imbibement solution was prepared by diluting the preparations given in Example 1 with water to a copper concentration of 5000 ppm. The vessel was evacuated for 5 min and then pressured with nitrogen for 1 h at 155 psi at which time the pressure was removed. The stakes were then removed from the vessel and allowed to drip dry. Weights were then recorded to insure that the wood was penetrated with the imbibement solution. The stakes were then dried overnight in a convection oven at 55° C. Weights of the dried stakes were then recorded.
These treated stakes along with control (untreated) stakes were labeled and buried in a flower pot with about ¾ of the wood below the surface of non-sterile soil. The flower pots were kept moist in a greenhouse at […]. After 5 months, the stakes were visually examined.

Copper Complex of the Amidoxime of Sorbitol [Example 1]
decomposition of treated newsprint (non-sterile soil): still intact and the printing was still legible
visual examination of stakes for covering of white, hairy fungus below the soil surface (white, hairy fungus): showed no such covering

— patent US6978724B2, “Copper complexes and their use as wood preservatives” (E.I. Du Pont de Nemours and Company, priority 2002, dated 2005)
